Measurements published in patent publication US7582428B2, “Methods and compositions for identifying anti-HCV agents” (priority 2003, dated 2009).

Tests used:
NS4B-GFP = NS4B-GFP (Hepatitis C virus genotype 1b, UniProt Q9WMX2); type: binding, HCV
GST-NS4B = molecular target: T1, GST-NS4B (Hepatitis C virus genotype 1b, UniProt Q9WMX2); test: RNA binding assay; design: species or system HCV; details: 5 mM nucleotide; compared with GTP-γ-S
T1 construct: wild type NS4B and the four NBM mutants were fused in frame with N-terminal Glutathione-S Transferase (GST) tags and assayed; made in house; host or cells: E. coli BL21 (pDEST15)
T1 sequence (Q9WMX2 1712-1972 limits assumed): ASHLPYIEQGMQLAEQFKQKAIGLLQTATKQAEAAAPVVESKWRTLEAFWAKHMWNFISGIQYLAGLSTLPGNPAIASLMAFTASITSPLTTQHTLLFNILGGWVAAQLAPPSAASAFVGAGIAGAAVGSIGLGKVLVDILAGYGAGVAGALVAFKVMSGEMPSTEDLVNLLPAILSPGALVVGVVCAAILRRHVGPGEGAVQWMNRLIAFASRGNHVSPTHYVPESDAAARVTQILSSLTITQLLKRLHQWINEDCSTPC
Experimental: RNA binding assay. 1 μg of purified protein was incubated for an hour at 37° C. in a 50 μl reaction mixture containing ^32P-labeled in vitro transcribed HCV RNA (prepared by using Sca I-linearized Bart79I plasmid (wild type HCV replicon (3)) as template, T7 RNA polymerase, and Riboprobe®/Promega, according to the manufacturer's protocol), binding buffer (10 mM DTT, 10 mM Na HEPES (pH 7.4), 33 mM NaCl, 0.1 mM EDTA, 10 mM MgCl2) and 5 mM of either GTP-γ-S or GDP (Sigma). 50 μl of tRNA pre-coated glutathione-agarose beads (Sigma) were then added, followed by 1 hour incubation at 4° C. to allow binding of GST to the beads. Samples were then washed three times in the binding buffer (in the absence of nucleotides). Aliquots were finally subjected to liquid scintillation counting for measuring bound RNA. Control incubations performed with reaction mixture prepared as above but with omission of T7 RNA polymerase were run in parallel and used for background subtraction.

Row | SMILES | labeling of NS4B-GFP by 32P-labeled photoactivatable nucleotide (NS4B-GFP) | further results
1 | [N-]=[N+]=Nc1ccc(NP(=O)(O)OP(=O)(O)OP(=O)(O)OC[C@H]2O[C@@H](n3cnc4c(=O)[nH]c(N)nc43)[C@H](O)[C@@H]2O)cc1 [GTP, GTP-γ-4-azidoanilide] | specifically labeled | –
2 | Nc1nc2c(ncn2[C@@H]2O[C@H](COP(=O)(O)OP(=O)(O)OP(O)(O)=S)[C@@H](O)[C@H]2O)c(=O)[nH]1 [GTPγS] | – | binding of labeled GTP in the presence of cold competitor nucleotide (NS4B-GFP): progressively decreased
3 | Nc1nc2c(ncn2[C@@H]2O[C@H](COP(=O)(O)OP(=O)(O)O)[C@@H](O)[C@H]2O)c(=O)[nH]1 [GDP] | – | HCV RNA binding of GST-NS4B in the presence of guanyl nucleotide (GST-NS4B): dramatically increased
4 | [N-]=[N+]=Nc1ccc(NP(=O)(O)OP(=O)(O)OP(=O)(O)OC[C@H]2O[C@@H](n3cnc4c(N)ncnc43)[C@H](O)[C@@H]2O)cc1 [ATP, ATP-γ4-azidoanilide] | significantly less efficient than GTP binding | –
